{"source": "patent US9302999B2", "about": "“Substituted triazoles as herbicides” (E. I. DU PONT DE NEMOURS AND COMPANY, priority 2012, dated 2016)", "assay_type_in_all_cases": "in vivo", "key": {"[1]": {"system": "morningglory (Ipomoea coccinea)", "assay": "Test C pre-/postemergence: morningglory", "source_text": "(§1) Seeds of plant species selected from blackgrass (Alopecurus myosuroides), bromegrass, downy (downy bromegrass, Bromus tectorum), foxtail, green (green foxtail, Setaria viridis), ryegrass, Italian (Italian ryegrass, Lolium multiflorum), winter wheat (Triticum aestivum), wild oat (Avena fatua), galium (catchweed bedstraw, Galium aparine), bermudagrass (Cynodon dactylon), surinam grass (Brachiaria decumbens), cocklebur (common cocklebur, Xanthium strumarium), corn (Zea mays), large crabgrass (Digitaria sanguinalis), woolly cupgrass (Eriochloa villosa), foxtail, giant (giant foxtail, Setaria faberii), goosegrass (Eleusine indica), johnsongrass (Sorghum halepense), kochia (Kochia scoparia), lambsquarters (Chenopodium album), morningglory (Ipomoea coccinea), nightshade (eastern black nightshade, Solanum ptycanthum), nutsedge, yellow (yellow nutsedge, Cyperus esculentus), pigweed (Amaranthus retroflexus), ragweed (common ragweed, Ambrosia elation), soybean (Glycine max), common (oilseed) sunflower (Helianthus annuus), Russian thistle (Salsola kali) and velvetleaf (Abutilon theophrasti) were planted into a blend of loam soil and sand and treated preemergence with test chemicals formulated in a non-phytotoxic solvent mixture which included a surfactant.\n(§2) At the same time, plants selected from these crop and weed species and also barley (winter barley, Hordeum vulgare), canarygrass (Phalaris minor), chickweed (common chickweed, Stellaria media) windgrass (Apera spica-venti) and deadnettle (henbit deadnettle, Lamium amplexicaule) were planted in pots containing Redi-Earth® planting medium (Scotts Company, 14111 Scottslawn Road, Marysville, Ohio 43041) comprising spaghnum peat moss, vermiculite, wetting agent and starter nutrients and treated with postemergence applications of test chemicals formulated in the same manner. Plants ranged in height from 2 to 18 cm (1- to 4-leaf stage) for postemergence treatments.\n(§3) Treated plants and controls were maintained in a greenhouse for 13 to 15 days, after which time all species were compared to controls and visually evaluated. Plant response ratings, summarized in Table C, are based on a scale of 0 to 100 where 0 is no effect and 100 is complete control. A dash (-) response means no test result."}, "[2]": {"system": "morningglory (Ipomoea spp.)", "assay": "Test A pre-/postemergence: morningglory", "details": "Postemergence, 0 to 100 scale, 0 is no effect, 100 is complete control", "method_in_brief": "(§4)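 Plants in loam–sand blend were treated with test chemicals in non-phytotoxic solvent with surfactant, either as preemergence directed soil spray or postemergence at 2–10 cm, one- to two-leaf stage. After about ten days in greenhouse, injury was rated visually against untreated controls on a 0–100 scale (100 = complete control).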"}, "[3]": {"system": "nutsedge, yellow (yellow nutsedge, Cyperus esculentus)", "assay": "Test C pre-/postemergence: nutsedge, yellow", "method_in_brief": "(§5)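 Visual injury scored 0–100 (100 = complete control) against untreated controls after 13–15 greenhouse days. Surfactant-containing solvent formulations applied either to soil after sowing (loam/sand) or over 1- to 4-leaf plants, 2–18 cm tall.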"}, "[4]": {"system": "wheat (Triticum aestivum)", "assay": "Test A pre-/postemergence: wheat", "method_in_brief": "as §4"}, "[5]": {"system": "pigweed (Amaranthus retroflexus)", "assay": "Test A pre-/postemergence: pigweed", "method_in_brief": "as §4"}, "[6]": {"system": "winter wheat (Triticum aestivum)", "assay": "Test C pre-/postemergence: winter wheat", "method_in_brief": "as §5"}, "[7]": {"system": "barnyardgrass (Echinochloa crus-galli)", "assay": "Test A pre-/postemergence: barnyardgrass", "method_in_brief": "as §4"}, "[8]": {"system": "foxtail, giant (giant foxtail, Setaria faberii)", "assay": "Test C pre-/postemergence: foxtail, giant", "source_text": "as §1, §2, §3"}, "corn (Zea mays)": {"system": "corn (Zea mays)", "assay": "Test A pre-/postemergence: corn", "method_in_brief": "as §4"}, "[9]": {"system": "blackgrass (Alopecurus myosuroides)", "assay": "Test C pre-/postemergence: blackgrass", "source_text": "as §1, §2, §3"}, "[10]": {"system": "ryegrass, Italian (Italian ryegrass, Lolium multiflorum)", "assay": "Test C pre-/postemergence: ryegrass, Italian", "source_text": "as §1, §2, §3"}, "[11]": {"details": "Postemergence, 31 g ai/ha, scale 0 to 100 (0 no effect, 100 complete control)"}, "[12]": {"details": "Postemergence, 62 g ai/ha, scale 0 to 100 (0 no effect, 100 complete control)"}, "[13]": {"details": "Postemergence, 125 g ai/ha, scale 0 to 100, 0 no effect, 100 complete control"}, "[14]": {"details": "Postemergence, 250 g ai/ha, scale 0 to 100"}, "[15]": {"details": "Preemergence, 62 g ai/ha, scale of 0 to 100, 0 is no effect, 100 is complete control"}, "[16]": {"details": "Preemergence, 125 g ai/ha, scale 0 to 100, 0 no effect, 100 complete control"}, "[17]": {"details": "Preemergence, 250 g ai/ha, scale 0 to 100, 0 no effect, 100 complete control"}, "[18]": {"details": "Preemergence, 31 g ai/ha, scale 0 (no effect) to 100 (complete control)"}, "[19]": {"details": "Postemergence, 125 g ai/ha, 0 to 100 scale, 0 is no effect, 100 is complete control"}, "[20]": {"details": "Postemergence, 500 g ai/ha, 0 to 100 scale, 0 is no effect, 100 is complete control"}, "[21]": {"details": "Preemergence, 125 g ai/ha, 0 to 100 scale where 0 is no effect and 100 is complete control"}, "[22]": {"details": "Preemergence, 500 g ai/ha, 0 to 100 scale (0 no effect, 100 complete control)"}}}
{"molecule": "CCc1nn(-c2ccc(F)cc2)nc1Oc1ccnc(C(F)(F)F)c1", "note": "[Compound 166]", "values": [{"measurement": "Plant response rating, Morningglory", "setting": "[1]; [11]", "value": 30}, {"measurement": "Plant response rating, Morningglory", "setting": "[1]; [12]", "value": 30}, {"measurement": "Plant response rating, Morningglory", "setting": "[1]; [13]", "value": 35}, {"measurement": "Plant response rating, Morningglory", "setting": "[1]; [14]", "value": 65}, {"measurement": "Plant response rating, Morningglory", "setting": "[1]; [15]", "value": 10}, {"measurement": "Plant response rating, Morningglory", "setting": "[1]; [16]", "value": 25}, {"measurement": "Plant response rating, Morningglory", "setting": "[1]; [17]", "value": 45}, {"measurement": "Plant response rating, Morningglory", "setting": "[2]; 125 g ai/ha", "value": 90}, {"measurement": "Morningglory plant response rating", "setting": "[2]; 500 g ai/ha", "value": 100}, {"measurement": "Plant response rating, Nutsedge, Yellow", "setting": "[3]; [11]", "value": 0}, {"measurement": "Plant response rating, Nutsedge, Yellow", "setting": "[3]; [12]", "value": 5}, {"measurement": "Plant response rating, Nutsedge, Yellow", "setting": "[3]; [13]", "value": 5}, {"measurement": "Plant response rating, Nutsedge, Yellow", "setting": "[3]; [14]", "value": 10}, {"measurement": "Plant response rating, Nutsedge, Yellow", "setting": "[3]; [18]", "value": 0}, {"measurement": "Plant response rating, Nutsedge, Yellow", "setting": "[3]; [15]", "value": 0}, {"measurement": "Plant response rating, Nutsedge, Yellow", "setting": "[3]; [16]", "value": 5}, {"measurement": "Plant response rating, Nutsedge, Yellow", "setting": "[3]; [17]", "value": 15}, {"measurement": "Plant response rating, Wheat", "setting": "[4]; [19]", "value": 30}, {"measurement": "Wheat plant response rating", "setting": "[4]; [20]", "value": 40}, {"measurement": "Plant response rating, Wheat", "setting": "[4]; [21]", "value": 10}, {"measurement": "Plant response rating, Wheat", "setting": "[4]; [22]", "value": 50}, {"measurement": "Plant response rating, Pigweed", "setting": "[5]; [19]", "value": 100}, {"measurement": "Pigweed plant response rating", "setting": "[5]; [20]", "value": 100}, {"measurement": "Plant response rating, Pigweed", "setting": "[5]; [21]", "value": 100}, {"measurement": "Plant response rating, Pigweed", "setting": "[5]; [22]", "value": 100}, {"measurement": "Plant response rating, Wheat", "setting": "[6]; [11]", "value": 5}, {"measurement": "Plant response rating, Wheat", "setting": "[6]; [12]", "value": 5}, {"measurement": "Plant response rating, Wheat", "setting": "[6]; [13]", "value": 5}, {"measurement": "Plant response rating, Wheat", "setting": "[6]; [14]", "value": 10}, {"measurement": "Plant response rating, Wheat", "setting": "[6]; [18]", "value": 0}, {"measurement": "Plant response rating, Wheat", "setting": "[6]; [15]", "value": 0}, {"measurement": "Plant response rating, Wheat", "setting": "[6]; [16]", "value": 5}, {"measurement": "Plant response rating, Wheat", "setting": "[6]; [17]", "value": 15}, {"measurement": "Plant response rating, Barnyardgrass", "setting": "[7]; [19]", "value": 70}, {"measurement": "Barnyardgrass plant response rating", "setting": "[7]; [20]", "value": 90}, {"measurement": "Plant response rating, Barnyardgrass", "setting": "[7]; [21]", "value": 90}, {"measurement": "Plant response rating, Barnyardgrass", "setting": "[7]; [22]", "value": 100}, {"measurement": "Plant response rating, Foxtail, Giant", "setting": "[8]; [11]", "value": 20}, {"measurement": "Plant response rating, Foxtail, Giant", "setting": "[8]; [12]", "value": 40}, {"measurement": "Plant response rating, Foxtail, Giant", "setting": "[8]; [13]", "value": 40}, {"measurement": "Plant response rating, Foxtail, Giant", "setting": "[8]; [14]", "value": 40}, {"measurement": "Plant response rating, Foxtail, Giant", "setting": "[8]; [18]", "value": 100}, {"measurement": "Plant response rating, Foxtail, Giant", "setting": "[8]; [15]", "value": 100}, {"measurement": "Plant response rating, Foxtail, Giant", "setting": "[8]; [16]", "value": 100}, {"measurement": "Plant response rating, Foxtail, Giant", "setting": "[8]; [17]", "value": 100}, {"measurement": "Plant response rating, Corn", "setting": "corn (Zea mays); [19]", "value": 20}, {"measurement": "Corn plant response rating", "setting": "corn (Zea mays); [20]", "value": 30}, {"measurement": "Plant response rating, Corn", "setting": "corn (Zea mays); [21]", "value": 10}, {"measurement": "Plant response rating, Corn", "setting": "corn (Zea mays); [22]", "value": 30}, {"measurement": "Plant response rating, Blackgrass", "setting": "[9]; [11]", "value": 10}, {"measurement": "Plant response rating, Blackgrass", "setting": "[9]; [12]", "value": 20}, {"measurement": "Plant response rating, Blackgrass", "setting": "[9]; [13]", "value": 40}, {"measurement": "Plant response rating, Blackgrass", "setting": "[9]; [14]", "value": 60}, {"measurement": "Plant response rating, Blackgrass", "setting": "[9]; [18]", "value": 15}, {"measurement": "Plant response rating, Blackgrass", "setting": "[9]; [15]", "value": 90}, {"measurement": "Plant response rating, Blackgrass", "setting": "[9]; [16]", "value": 90}, {"measurement": "Plant response rating, Blackgrass", "setting": "[9]; [17]", "value": 95}, {"measurement": "Plant response rating, Ryegrass, Italian", "setting": "[10]; [11]", "value": 5}, {"measurement": "Plant response rating, Ryegrass, Italian", "setting": "[10]; [12]", "value": 5}, {"measurement": "Plant response rating, Ryegrass, Italian", "setting": "[10]; [13]", "value": 20}, {"measurement": "Plant response rating, Ryegrass, Italian", "setting": "[10]; [14]", "value": 25}, {"measurement": "Plant response rating, Ryegrass, Italian", "setting": "[10]; [18]", "value": 5}, {"measurement": "Plant response rating, Ryegrass, Italian", "setting": "[10]; [15]", "value": 40}, {"measurement": "Plant response rating, Ryegrass, Italian", "setting": "[10]; [16]", "value": 50}, {"measurement": "Plant response rating, Ryegrass, Italian", "setting": "[10]; [17]", "value": 100}]}
